# From patent publication US8822509B2, “Pain-relieving compositions and uses therefor” (priority 2006, dated 2014)
# Where two headings read alike, the source gives them in different places. Marks after values point to notes of the source that are not given here.
# Tests used:
# [1] = In vitro NO release (Total NOx, modified Griess reagent assay); details: assay of Example 9; for 1 Hour Total NOx: NOx analysis at 1 hour; for 6 Hours Total NOx: NOx analysis at 6 hours
# Procedure: Briefly, HEK-MOP cells were seeded at 1×10^5 cells/mL and grown in 10 cm plates to 90% confluence. Four hours prior to experimentation, cell medium was replaced with phenol red-free DMEM. […] Following removal of each supernatant sample, it was replaced with 500 μL of phenol red-free DMEM. Samples were immediately placed on ice until NOx concentrations were quantified.
# Sample aliquots (100 μL) were added to 96-well plates in duplicates. Nitrate was first converted to nitrite to determine total NOx concentrations with the addition of 100 μL aliquots of vanadium (III) chloride in 1M HCl (800 mg/100 mL) per well, followed by 100 μL aliquots of modified Griess reagent which converted nitrite to a deep purple azo derivative for spectrophotometric quantification at 560 nm using an Envision Multilabel Plate Reader (PerkinElmer Life Sciences). […] Total NOx and nitrite concentration was determined through inverse prediction against the nitrite standard curve.
# [2] = molecular target: T1, μ-opioid receptors (MOP receptors) (Mus musculus, UniProt P42866); assay type: cell-based
# T1 construct: expressed in transfected cells; host or cells: HEK293
# [3] = molecular target: T1, μ-opioid receptors (MOP receptors); assay type: cell-based; remark: listed apart in the source
# Procedure: Briefly, HEK-MOP cells were pre-incubated with 2% (2-hydroxypropyl)-β-cyclodextrin (βCD) for 1 h at 37° C. to deplete cholesterol from caveloae in the cell membrane. Cells were washed with DMEM and then utilized in the forskolin-stimulated cAMP assay as described above. […] Cells were washed with DMEM and then utilized in the forskolin-stimulated cAMP assay as described above.
# [4] = system: mechanical allodynia in rats hyporesponsive to morphine; assay: Relief of mechanical allodynia (PWT) in rats hyporesponsive to morphine; assay type: in vivo
# STZ-diabetic rats [5] = assay: Tolerance development (7-day s.c. infusion, 2-day washout) in STZ-diabetic rats, von Frey PWT; assay type: in vivo
# [6] = system: hindpaws of control non-diabetic rats; assay: Antinociception by von Frey PWT in control non-diabetic rats; assay type: in vivo, Wistar rats; details: single s.c. bolus; morphine 1.8-21.4 μmol/kg, Compound 1 2-20 fmol/kg
# Procedure: (§1) Briefly, baseline PWTs were determined for both hindpaws prior to each antinociceptive testing session in the non-diabetic control group at week 0 as well as in groups of STZ-diabetic rats at 10, 14 and 24 wks.
# (§2) The PWT vs time data were normalized by subtracting the pre-dosing baseline PWT values for each individual rat to obtain ΔPWT values as follows: Normalized (Δ)PWT value=Post-treatment PWT value−PWT value prior to treatment.
# (§3) ΔPWT versus time curves were then constructed. Trapezoidal integration was used to estimate ΔPWT AUC values for individual rats in the non-diabetic and STZ-diabetic rat treatment groups. ΔPWT AUC versus dose curves were constructed and GraphPad™ Prism was used to estimate the ˜ED50 values.
# [7] = system: tactile (mechanical) allodynia in hindpaws of STZ-diabetic rats; assay: Anti-allodynia by von Frey paw withdrawal thresholds (PWT) in STZ-diabetic rats; assay type: in vivo, Wistar rats
# Procedure: Following this, the jugular cannula was withdrawn, the vein tied off, and the incision sutured. Following surgery, rats received antibiotic prophylaxis in the form of topical dusting powder over the sutured incisions, as well as a subcutaneous injection of benzylpenicillin (60 mg). Rats were placed in individual cages, kept warm and monitored closely during the surgical recovery period. Rats were classified as diabetic if on day 10 post-STZ administration, their daily water intake was ≧100 mL and their corresponding blood glucose levels (BGLs) were ≧15 mM.
# Calibrated von Frey filaments were used to document the time course for the development and maintenance of tactile allodynia (defining symptom of PDN).
# as §1, §2, §3
# STZ-diabetic rats [8] = assay: Behavioural side-effects in STZ-diabetic rats; assay type: in vivo; details: Compound 1 800 pmol/kg s.c.; morphine 21 μmol/kg
# [9] = system: non-diabetic control rats; assay: Tolerance development (7-day continuous s.c. infusion, 2-day washout) in non-diabetic control rats, von Frey PWT; assay type: in vivo
# [10] = week 10 post-STZ, morphine 2.8 μmol/kg s.c.
# [11] = drug-naïve non-diabetic rats, Compound 1 8 fmol/kg, morphine 2.8 mmol/kg (so in the source) s.c. bolus
# [12] = non-diabetic rats, second s.c. bolus after 7-day infusion and 2-day washout
# T1 sequence (P42866 whole entry): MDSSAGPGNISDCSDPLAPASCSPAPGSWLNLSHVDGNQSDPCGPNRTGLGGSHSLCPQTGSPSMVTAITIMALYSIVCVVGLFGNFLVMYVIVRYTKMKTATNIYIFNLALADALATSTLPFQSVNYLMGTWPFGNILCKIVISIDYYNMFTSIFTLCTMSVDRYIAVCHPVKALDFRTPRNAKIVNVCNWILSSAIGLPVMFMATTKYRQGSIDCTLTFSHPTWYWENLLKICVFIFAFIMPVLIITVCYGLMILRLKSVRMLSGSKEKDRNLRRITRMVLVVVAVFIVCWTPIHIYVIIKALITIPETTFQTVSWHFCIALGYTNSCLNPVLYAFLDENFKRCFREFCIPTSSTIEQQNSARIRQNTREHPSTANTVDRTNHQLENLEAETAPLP
SMILES,1 Hour Total NOx [1] [µM],6 Hours Total NOx [1] [µM],% of forskolin stimulated cyclic AMP response ([2]; Conc 10^−10 M) [%],% of forskolin stimulated cyclic AMP response ([2]; Conc 10^−12 M) [%],% of forskolin stimulated cyclic AMP response ([3]; Conc 10^−3 M) [%],% of forskolin stimulated cyclic AMP response ([3]; Conc 10^−4 M) [%],% of forskolin stimulated cyclic AMP response ([3]; Conc 10^−5 M) [%],% of forskolin stimulated cyclic AMP response ([3]; Conc 10^−6 M) [%],% of forskolin stimulated cyclic AMP response ([3]; Conc 10^−7 M) [%],% of forskolin stimulated cyclic AMP response ([3]; Conc 10^−8 M) [%],% of forskolin stimulated cyclic AMP response ([3]; Conc 10^−9 M) [%],% of forskolin stimulated cyclic AMP response ([3]; Conc 10^−11 M) [%],% of forskolin stimulated cyclic AMP response ([3]; Conc 10^−13 M) [%],% of forskolin stimulated cyclic AMP response ([3]; Conc 10^−14 M) [%],% of forskolin stimulated cyclic AMP response ([3]; Conc 10^−15 M),% of forskolin stimulated cyclic AMP response ([3]; Conc 10^−16 M) [%],% of forskolin stimulated cyclic AMP response ([3]; Conc 10^−17 M),% of forskolin stimulated cyclic AMP response ([3]; Conc 10^−18 M),also measured
Cc1c(C(=O)O)no[n+]1[O-] [Compound 6],0.31,0.53,61.5,91.1,8.1,115.0,138.7,109.7,110.5,111.2,88.2,88.0,128.0,98.2,79.0^a %,149.0,83.9%,60.4%,–
O=C1CCc2c1no[n+]2[O-] [Compound 16],1.08,1.19,101.3,59.3,18.9,44.3,105.2,83.5,119.9,62.2,125.4,67.1,98.8,106.3,97.7%,108.3,100.4%,62.4^a %,–
O=C(c1no[n+]([O-])c1-c1ccccc1)C(F)(F)F [Compound 22],1.63,2.52,66.1,62.4,0.3,18.2,77.9,87.5,68.4,82.1,65.2,59.2,70.5,104.6,89.0%,73.2,59.4^b %,47.0%,–
"O=C(O)CCCCO[N+](=O)[O-] [Compound 33, 5-nitratopentanoic acid]",13.14,67.69,–,–,–,–,–,–,–,–,–,–,–,–,–,–,–,–,"relief of mechanical allodynia ([4]; Compound 33 80 nmol/kg s.c. bolus): insignificant relief; relief of mechanical allodynia ([4]; Compound 33 120, 800 and 1200 nmol/kg s.c. bolus): significant relief of mechanical allodynia; duration of anti-allodynia ([4]; Compound 33 s.c. bolus): 2 to 3 h; time of peak anti-allodynia post-dosing ([4]; Compound 33 s.c. bolus): 0.75 to 1 h; inhibition of forskolin-stimulated cyclic AMP formation ([2]; μm to mm range (so in the source)): dose dependent inhibition"
"CN1CC[C@]23c4c5ccc(O)c4O[C@H]2[C@@H](O)C=C[C@H]3[C@H]1C5 [morphine, reference compound]",–,–,–,–,–,–,–,–,–,–,–,–,–,–,–,–,–,–,"tolerance after 7-day s.c. infusion (STZ-diabetic rats [5]; STZ-diabetic rats): antinociceptive tolerance developed; anti-allodynia after second bolus (tolerance status) (STZ-diabetic rats [5]; STZ-diabetic rats, after 2-day washout, morphine 10.5 μmol/kg, Compound 1 800 pmol/kg): insignificant anti-allodynia; time of peak anti-allodynia post-dosing (STZ-diabetic rats [5]; naïve STZ-diabetic rats, first s.c. bolus): 1 h; mean (±SEM) peak PWT (STZ-diabetic rats [5]; naïve STZ-diabetic rats, Compound 1 800 pmol/kg, morphine 10.4 μmol/kg s.c. bolus): 10.7 (±0.3) g; antinociception in the hindpaws of control non-diabetic rats [6]: dose-dependent antinociception; time of peak effect post-dosing ([7]; morphine 1.8-21.4 μmol/kg s.c. (FIG. 2)): 30 to 60 min; anti-allodynia in the hindpaws of STZ-diabetic rats ([7]; single s.c. bolus at 10, 14, 24 wks post-STZ): dose-dependent anti-allodynia; mean (±SEM) PWT at time of peak response [7, 10]: 10.7 ± 0.6 g; reversal of mechanical allodynia at time of peak response [7, 10]: fully reversed mechanical allodynia; anti-allodynic potency ([7]; week 14 post-STZ, morphine 2.8 μmol/kg s.c.): significantly reduced; relief of mechanical allodynia at time of peak response ([7]; week 14 post-STZ, morphine 10.5 μmol/kg s.c.): completely relieved mechanical allodynia; anti-allodynic potency ([7]; week 24 post-STZ, morphine 10.5 and 21.4 μmol/kg s.c.): markedly reduced; behavioural side-effects at highest dose (STZ-diabetic rats [8]): staring and sedation; time of peak antinociception post-dosing ([9]; drug-naïve non-diabetic rats, first s.c. bolus): 1 h; mean (±SEM) peak PWT [9, 11]: 16.0 (±0.4) g; mean (±SEM) peak ΔPWT [9, 11]: 4.4 (±0.4) g; tolerance after 7-day continuous s.c. infusion ([9]; non-diabetic rats): antinociceptive tolerance developed; antinociception after second bolus, naïve vs ""tolerant"" rats ([9]; non-diabetic rats, after 2-day washout): tolerant to the antinociceptive effects of morphine; mean (±SEM) peak PWT [9, 12]: 12 (±0.3) g; mean (±SEM) peak ΔPWT [9, 12]: 0.5 (±0.3) g"
